Test results reported in patent US20260356849A1, “COMPOUNDS AND METHODS FOR TREATING CANCERS” (CEDARS-SINAI MEDICAL CENTER, priority 2022, published 2026).

System: MEK and ERK activity
Assay: Western blot ERK and MEK activity in RKO cells
Assay type: cell-based, human
Settings: 2-10 μM, 24 hours

CC1(C)Cc2nc3sc4c(=O)n(CC(=O)NCc5ccco5)cnc4c3cc2CO1 [Compound C3, 2-(8,8-Dimethyl-4-oxo-7,10-dihydro-8H-pyrano[3″,4″: 5′,6′]pyrido[3′,2′: 4,5]thieno[3,2-d]pyrimidin-3 (4H)-yl)-N-(2-furylmethyl) acetamide]
ERK and MEK activities, RKO: lower
